Counter-ions that a name gives are not always drawn. Like-named read-outs stand apart in the source and are kept apart here.
B1: NT-4: neurotrophic factor in the NGF family of neurotrophins (protein, UniProt P34130 81-210, looked up)
Neurotrophin-4: GVSETAPASRRGELAVCDAVSGWVTDRRTAVDLRGREVEVLGEVPAAGGSPLRQYFFETRCKADNAEEGGPGAGGGGCRGVDRRHWVSECKAKQSYVRALTADAQGRVGWRWIRIDTACVCTLLSRTGRA
B2: BDNF: brain-derived neurotrophic factor, a protein neurotrophic factor (protein, UniProt P23560 19-247, looked up)
Neurotrophic factor BDNF …: APMKEANIRGQGGLAYPGVRTHGTLESVNGPKAGSRGLTSLADTFEHVIEELLDEDQKVRPNEENNKDADLYTSRVMLSSQVPLEPPLLFLLEEYKNYLDAANMSMRVRRHSDPARRGELSVCDSISEWVTAADKKTAVDMSGGTVTVLEKVPVSKGQLKQYFYETKCNPMGYTKEGCRGIDKRHWNSQCRTTQSYVRALTMDSKKRIGWRFIRIDTSCVCTLTIKRGR
B3: NT-3: neurotrophic factor in the NGF family of neurotrophins (protein, UniProt P20783 139-257, looked up)
Neurotrophin-3: YAEHKSHRGEYSVCDSESLWVTDKSSAIDIRGHQVTVLGEIKTGNSPVKQYFYETRCKEARPVKNGCRGIDDKHWNSQCKTSQTYVRALTSENNKLVGWRWIRIDTSCVCALSRKIGRT

Experiments:
[1] = administered topically as a solution; cited from earlier work
[2] = eye drops, cited from earlier work
[3] = Release of timolol maleate in vitro from microspheres; type: physicochemical; conditions: 20% w/w timolol maleate to PLGA; AOT 147 mM in first emulsion step, or Span 20 in its place
Experimental: In 1.5 ml eppendorf tubes, 10 mg of timolol containing or blank microparticles were reconstituted with 1 ml of phosphate buffered saline (PBS). Samples were prepared in triplicate. The samples were incubated at 37° C. on a labquake rotating shaker (Barnstead/Thermolyne; Dubuque, Iowa, USA). At specific time points (1, 3, 5, and 8 hours; 1, 2, 3, 5, and 7 days; and once every 7 days thereafter until no pellets remained), the samples were centrifuged and the supernatant collected. 1 ml of PBS was added to the replace the withdrawn supernatant and the microparticles were resuspended and returned to the shaker. Supernatants for each of the sets of microspheres was frozen and stored at −80° C. for subsequent analysis using UV spectroscopy at 293 nm.
The drug loading was 20% weight of timolol maleate to weight of polymer. The particles were stored in deionized water at 37° C. Following centrifugation at predetermined time points, the supernatant was extracted and timolol maleate content measured. FIG. 3 depicts the same values expressed as a percentage of the loading values in FIG. 1.

[4] = tested on: adult rat retinal ganglion cells; conditions: cited from earlier work; for delay of onset of axotomy-induced RGC death: intraocular administration at the time of axotomy; for effect on survival of RGCs after axotomy: intraocular administration

Row | Molecule | delay of onset of axotomy-induced RGC death [4] | effect on survival of RGCs after axotomy [4] | also measured
1 | CC(C)(C)NC[C@H](O)COc1nsnc1N1CCOCC1 [Timolol maleate] |  |  | average IOP reduction [1]: 20-35%; systemic absorption of the administered drug [2]: approximately 80%; topically administered drug reaching the aqueous humor [2]: less than 1%; systemic absorption of the administered drug ([2]; listed as timolol maleate): ~80%
2 | Span 20 |  |  | effect of added surfactant on loading or release of timolol maleate [3]: no significant effect
3 | B1 | approximately 3 days | neuroprotective effect | 
4 | B2 | approximately 3 days | neuroprotective effect | 
5 | B3 |  | did not modify the survival of RGCs | 
